Results on 75 compounds are retold here after article PMC12064818, “A general assay platform to study protein pharmacology using ligand-dependent structural dynamics” (Nature Communications, 2025).

Each structure is given as a SMILES string.

The target in this experiment is T1, FLuc-C-HiBiT (Photinus pyralis, UniProt P08659).
T1 construct: firefly luciferase with C-terminal HiBiT tag, E. coli expressed
T1 sequence (P08659 whole entry, looked up): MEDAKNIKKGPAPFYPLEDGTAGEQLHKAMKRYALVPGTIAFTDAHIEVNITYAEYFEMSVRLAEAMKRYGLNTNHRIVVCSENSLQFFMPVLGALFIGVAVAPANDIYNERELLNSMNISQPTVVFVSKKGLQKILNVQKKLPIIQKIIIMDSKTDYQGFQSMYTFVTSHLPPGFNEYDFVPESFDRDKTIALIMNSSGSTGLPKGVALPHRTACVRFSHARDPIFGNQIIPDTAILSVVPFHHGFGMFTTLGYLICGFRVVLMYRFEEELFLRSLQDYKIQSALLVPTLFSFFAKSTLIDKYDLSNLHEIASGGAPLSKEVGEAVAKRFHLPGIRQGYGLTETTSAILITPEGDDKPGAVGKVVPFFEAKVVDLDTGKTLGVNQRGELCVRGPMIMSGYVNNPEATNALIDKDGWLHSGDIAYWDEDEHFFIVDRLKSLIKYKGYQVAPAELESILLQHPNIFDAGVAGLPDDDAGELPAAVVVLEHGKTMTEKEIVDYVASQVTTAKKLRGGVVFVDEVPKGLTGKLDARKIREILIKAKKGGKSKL
Nature of the experiment: biochemical. The note with it: enzyme activity, 10 uM ATP; read-out: IC50 or SDR50 (mM) / FLuc E.
As to `COC(=O)c1ccccc1NC(=O)CCc1c(C)nc2cc(-c3ccc(Cl)cc3)nn2c1C` [NCGC00110028-01], the IC50 came to 9.89 µM.

As to `O=c1c2nc(N3CCC(c4ccccc4)CC3)ccc2ncn1C1CC1` [NCGC00414736-01], the IC50 turned out to be 3.6 µM.

With `CCn1c(C2CCCN(C(=O)Nc3ccc4c(c3)OCCO4)C2)nn(C)c1=O` (stereo not drawn) [NCGC00439046-01], the IC50 turned out to be 11.1 µM.

Regarding `CCOC(=O)c1cccc(Nc2nc(-c3ccccc3)no2)c1` [NCGC00422292-01], the IC50 was 6.24 µM.

As to `CN1c2cc(C(=O)Nc3cccc(F)c3)ccc2C(=O)N2CCCCCC21` (stereo not drawn) [NCGC00452183-01], the IC50 was determined as 12.4 µM.

Take `Cc1ccc(NC(=O)Nc2ccc(C)n(CC(=O)NC(C)(C)C)c2=O)cc1` [NCGC00430790-01]: the IC50 turned out to be 3.94 µM.

In the case of `Cn1ccc2c(C(=O)NCc3cccnc3)nc(-c3ccc(N4CCOCC4)cc3)cc21` [NCGC00411612-01], the IC50 was 18 µM.

As for `COc1ccc(-c2nc(-c3cccc(C(=O)O)c3)no2)cc1` [NCGC00168767-01], the IC50 amounted to 0.00248 µM.

Consider `Cc1cc(CNC(=O)C2CCCCn3nnnc32)c2[nH]c(-c3ccccc3)c(C)c2c1` (stereo not drawn) [NCGC00434459-01], for which the IC50 turned out to be 11.1 µM.

Take `CCn1ncc(NC(=O)Cn2ncc3cc(-c4ccc(C)cc4F)ccc32)n1` [NCGC00430893-01]: the IC50 is 12.4 µM.

`COc1cccc(C(=O)Nc2ccc(-c3nc4ccccc4s3)cc2Cl)c1` [NCGC00137802-01]: the IC50 is more than 30 µM.

Consider `O=C(c1cc2ccc3cccnc3c2[nH]1)N1CCCCC1` [NCGC00126930-01], for which the IC50 came to 1.57 µM.

With `Cc1ccc(C2Cn3nnc(C(=O)N4CCC(C(=O)NCCc5ccccc5)CC4)c3CO2)cc1` (stereo not drawn) [NCGC00449535-01], the IC50 was found to be 11.1 µM.

In the case of `O=C(O)c1ccc(-c2noc(-c3cccc(F)c3)n2)cc1` [NCGC00168097-02], the IC50 was determined as 4.95 µM.

`CCOc1ccc(C(=O)Nc2cc(-c3nc4cc(OC)ccc4o3)ccc2C)cc1[N+](=O)[O-]` [NCGC00103318-01]: the IC50 worked out at 7.85 µM.

Take `COc1cccc(-c2cc3c(=O)n(CCNC(=O)c4ccccc4Cl)ccn3n2)c1` [NCGC00457089-01]: the IC50 stood at 8.81 µM.

As to `CN(Cc1cccnc1)c1ccc(-c2nc(COc3ccccc3)no2)cn1` [NCGC00425502-01], the IC50 came out at 12.4 µM.

With `O=C(O)c1ccc(-c2nnc3ccc(NC(=O)C4CCC4)cn23)cc1` [NCGC00432681-01], the IC50 was 11.1 µM.

In the case of `Cc1c(-c2ccccc2F)[nH]c2ccc(CNC(=O)CCc3cc(O)no3)cc12` [NCGC00437347-01], the IC50 was 9.89 µM.

On to `COc1cccc(-c2cccc(COc3cnc4c(ccn4CC(=O)O)c3)c2)c1` [NCGC00418182-01], for which the IC50 is 16.1 µM.

As to `O=C(C1CCC1)N1c2ccccc2CC1c1noc(C2CCOCC2)n1` (stereo not drawn) [NCGC00471502-01], the IC50 was 9.89 µM.

In the case of `Cc1ccc(-n2ncc3c(N4CCC(Cc5ccccc5)CC4)ncnc32)cc1` [NCGC00139020-01], the IC50 was more than 30 µM.

On to `O=C(Nc1ccccc1)c1nc2c(o1)CCN(Cc1ccc(F)cc1)CC2` [NCGC00413289-01], for which the IC50 was 18 µM.

As for `CCOc1ccc(-c2cc(CCCC(=O)NCCc3ccc(SC)cc3)no2)cc1` [NCGC00110854-01], the IC50 stood at 3.13 µM.

On to `Cc1ccc(C(=O)Nc2cccc3cccnc23)cc1Cl` [NCGC00103195-01], for which the IC50 is more than 30 µM.

Turning to `CSc1ccc(/C=C/c2nc3ccccc3n2[S+](=O)([O-])c2ccc(F)c(C)c2)cc1` [NCGC00139450-01], the IC50 amounted to 0.7 µM.

Consider `N#C/C(=C\c1ccc(-c2cc(Cl)ccc2Cl)o1)C(=O)Nc1ccccc1C(=O)O` [NCGC00098944-01], for which the IC50 was determined as 17.6 µM.

With `CCOc1ccc(-c2cc3c(=O)n(CCNC(=O)c4cccc(N(C)C)c4)ccn3n2)cc1` [NCGC00456949-01], the IC50 amounted to 3.94 µM.

In the case of `c1ccc(-c2noc(-c3nc(C4CC4)no3)n2)cc1` [NCGC00450069-01], the IC50 came to 9.89 µM.

For the compound `Cc1ccc(-n2ncc3c(NC4CCCC4)ncnc32)cc1` [NCGC00138985-01], the IC50 is 0.624 µM.

On to `Cc1cc(-c2nc3cc(F)ccc3s2)ccc1N` [NCGC00402259-04], for which the IC50 came to 1.11 µM.

Regarding `O=c1oc2c(CN3CCCC3)c(O)ccc2cc1-c1ccccc1` [NCGC00134332-01], the IC50 was more than 30 µM.

In the case of `CSc1ccc(C(=O)Nc2ccc(-c3nc4ccccc4s3)c(O)c2)cc1` [NCGC00134695-01], the IC50 was more than 30 µM.

For the compound `CCc1ccc(-n2nc(CO)c(C(=O)NC)n2)cc1` [NCGC00117187-01], the IC50 came to 17.6 µM.

In the case of `Cc1ccc(NC(=O)Nc2ccc(C)n(CC(=O)NCCN3CCCC3)c2=O)cc1` [NCGC00430806-01], the IC50 stood at 11.1 µM.

`COc1ccc(-c2cc3c(cn2)CN(Cc2ccncc2)CCN3)cc1` [NCGC00411159-01]: the IC50 was determined as 16.1 µM.

For the compound `COc1ccc(-c2cc(N3CCCC(NC(=O)c4ccc5ncccc5c4)C3)[nH]n2)cc1` (stereo not drawn) [NCGC00437712-01], the IC50 came to 3.94 µM.

Turning to `O=C1NCCCc2[nH]c(-c3cc(-c4cccc(F)c4)no3)nc21` [NCGC00447462-01], the IC50 worked out at 7 µM.

Regarding `Cn1c(=O)c2ccnn2c2ccc(C(=O)Nc3ccc4c(c3)OCCO4)cc21` [NCGC00470050-01], the IC50 stood at 9.89 µM.

For the compound `O=C(Nc1cccc(Br)c1)c1cc(-c2ccc3c(c2)OCCO3)on1` [NCGC00118911-01], the IC50 was determined as 0.989 µM.

For the compound `CN(C)c1ccc(NC(=O)c2ccc3c(c2)N(C)C2CCCCN2C3=O)cc1` (stereo not drawn) [NCGC00452413-01], the IC50 was 11.1 µM.

With `O=C(CSc1nnc2ccccn12)Nc1cccc(-c2nc3ccccc3s2)c1` [NCGC00688053-01], the IC50 was more than 30 µM.

As for `Oc1c(Br)cc(Br)cc1-c1nc2ccccc2s1` [NCGC00098096-01], the IC50 worked out at 12.4 µM.

With `CCOc1ncccc1C(=O)OCC(=O)Nc1ccc(-c2nc3ccc(C)cc3s2)cc1` [MLS000418033-02], the IC50 is 16 µM.

`COc1cccc(-c2ncc3c(n2)OCCN(c2ccccc2)C3=O)c1` [NCGC00413522-01]: the IC50 is 1.8 µM.

Turning to `Cc1ccc(-c2cc3c(=O)n(CCNC(=O)Cc4ccsc4)ccn3n2)c(C)c1` [NCGC00456972-01], the IC50 stood at 6.24 µM.

Regarding `COc1ccc(NC(=O)Nc2ccc(C)n(CC(=O)NCC(C)C)c2=O)cc1` [NCGC00430836-01], the IC50 came out at 3.51 µM.

As for `COCC(C)Nc1ncnc2c1cnn2-c1cccc(Cl)c1` (stereo not drawn) [NCGC00139080-01], the IC50 was 11.1 µM.

In the case of `CCOC(=O)C1(C)C=C(Nc2cccc(C(=O)O)c2)C(=O)N1c1ccccc1` (stereo not drawn) [NCGC00100416-01], the IC50 is 12.4 µM.

On to `CC(=O)Nc1ccc(NC(=O)CCCc2nc(-c3ccc(C(C)(C)C)cc3)no2)cc1` [NCGC00116112-01], for which the IC50 worked out at 4.95 µM.

Regarding `c1coc(-c2nc3nccc(-c4ccc5c(c4)OCCCO5)n3n2)c1` [NCGC00424571-01], the IC50 was determined as 1.76 µM.

Take `CCC[C@H](C)Oc1nc(N)c2[nH]c(=O)n(CCCCCN3CCCCC3)c2n1` [NCGC00856659-01]: the IC50 was more than 30 µM.

Take `COc1ccc(CC(=O)Nc2ccc(-c3nc4ccccc4s3)c(C)c2)cc1` [NCGC00137836-01]: the IC50 was more than 30 µM.

For the compound `COc1ccc(-c2nc3ccccc3s2)cc1NC(=O)c1ccccc1F` [NCGC00103034-01], the IC50 was more than 30 µM.

Regarding `O=C(O)C1(Oc2ccc3ccccc3c2)CCN(c2ncnc3[nH]cnc23)CC1` [NCGC00441641-01], the IC50 is more than 30 µM.

Turning to `O=C(NCCc1ccccc1)c1ccc2c(c1)nc1n2CCOC1` [NCGC00133386-01], the IC50 turned out to be 8.81 µM.

On to `CCC(C(=O)NCCn1ccn2nc(-c3ccc(OC)cc3)cc2c1=O)c1ccccc1` (stereo not drawn) [NCGC00456905-01], for which the IC50 was 11.1 µM.

In the case of `COc1ccc(-c2cc3c(cn2)CN(Cc2cccnc2)CCN3)cc1F` [NCGC00411039-01], the IC50 stood at 14.3 µM.

Consider `COc1ccc(C(=O)Oc2ccc(C(c3c(C)n[nH]c3O)c3c(C)n[nH]c3O)cc2)cc1` [NCGC00100425-01], for which the IC50 was determined as 9.89 µM.

Turning to `CCNC(=O)N[C@@H]1C=C[C@@H](c2c(C)nn(-c3ccc(F)cc3)c2C)C1` [NCGC00392634-01], the IC50 came out at 20.2 µM.

Consider `Clc1ccc(-c2cc3c(cn2)CN(Cc2ccncc2)CCN3)cc1` [NCGC00411101-01], for which the IC50 was 16.1 µM.

On to `CCc1nnc(CC2CCN(C(=O)Nc3ccc4c(c3)OCCO4)CC2)[nH]1` [NCGC00458299-01], for which the IC50 was 11.1 µM.

Turning to `COc1ccc(-c2ncc3c(n2)OCCN(Cc2ccccc2)C3=O)cc1` [NCGC00413617-01], the IC50 is 18 µM.

Take `CN1CCN(c2ccc(-c3cc4c(ccn4C)c(C(=O)NCC4CCC(=O)N4)n3)cc2)CC1` (stereo not drawn) [NCGC00411731-01]: the IC50 was found to be 15.7 µM.

Consider `CCOc1cc2sc(N3CCC(C(=O)Nc4ccc(C(C)C)cc4)CC3)nc2cc1Br` [NCGC00113423-01], for which the IC50 came to 7 µM.

Take `NC(=O)C1CCCN(c2ncnc3c2cnn3-c2ccccc2)C1` (stereo not drawn) [NCGC00644764-01]: the IC50 was 11.1 µM.

Take `CC(=O)N[C@@H]1C=C[C@@H](c2c(C)nn(-c3ccc(C(C)(C)C)cc3)c2C)C1` [NCGC00397882-01]: the IC50 was 18 µM.

For `Cc1ccc(-n2nc(C)c([C@H]3C=C[C@@H](O)C3)c2C)cc1Cl` [NCGC00394636-01], the IC50 was found to be 12.8 µM.

Consider `Oc1ccc(Cl)cc1CN1CCOc2c(O)cc(-c3nc4ccccc4s3)cc2C1` [NCGC00240488-01], for which the IC50 is more than 30 µM.

On to `Cc1cc2nc(-c3cccc(NC(=O)COc4ccc(C(C)C)cc4)c3)oc2cc1C` [NCGC00102495-01], for which the IC50 stood at 9.89 µM.

For `Cc1ccc(-c2cc3c(=O)n(CCNC(=O)c4ccoc4)ccn3n2)cc1C` [NCGC00457019-01], the IC50 was determined as 9.89 µM.

As for `CN(C)C1CCN(c2ccc(-c3nc(CCCc4ccccc4)no3)cn2)CC1` [NCGC00437613-01], the IC50 was more than 30 µM.

`COc1ccc(NC(=O)Nc2cccc(-c3ccc(N4CCOCC4)nn3)c2)cc1` [NCGC00427572-01]: the IC50 is 1.76 µM.

Regarding `COc1ccc(-c2cc3c(=O)n(CCNC(=O)c4c(F)cccc4Cl)ccn3n2)cc1` [NCGC00456907-01], the IC50 is 7 µM.

Consider `COc1ccccc1CNC(=O)c1ccc2nc(N3CCCCC3)sc2c1` [NCGC00113612-01], for which the IC50 is more than 30 µM.
